Source: the NIST ThermoML archive (doi:10.1016/j.fluid.2010.01.002)

Assay: mn = molality of the nth substance listed, in mol/kg
Conditions: 101 kPa, Liquid, Vibrating tube method

COS(=O)(=O)[O-].Cn1cc[n+](C)c1 [1,3-dimethylimidazolium methylsulfate] + O
mass density [kg/m3]
Conditions	298.15 K	308.15 K	318.15 K	328.15 K
m1 = 0.0095	997.56	994.57	990.75	986.12
m1 = 0.018	998.03	995.02	991.2	986.56
m1 = 0.0236	998.32	995.31	991.48	986.84
m1 = 0.0316	998.76	995.73	991.89	987.25
m1 = 0.0414	999.29	996.24	992.39	987.74
m1 = 0.0611	1000.34	997.25	993.38	988.72
m1 = 0.0788	1001.28	998.16	994.27	989.59
m1 = 0.0914	1001.94	998.8	994.9	990.2
m1 = 0.1165	1003.24	1000.06	996.14	991.43
m1 = 0.1441	1004.65	1001.43	997.49	992.77
m1 = 0.1816	1006.53	1003.27	999.3	994.58
m1 = 0.2172	1008.25	1004.99	1001	996.25
m1 = 0.2724	1010.92	1007.59	1003.6	998.8
m1 = 0.3964	1016.79	1013.25	1009.26	1004.4
m1 = 0.4557	1019.55	1015.89	1011.88	1006.99
m1 = 0.5756	1024.98	1021.08	1017.04	1012.19
m1 = 0.7108	1030.77	1026.7	1022.63	1017.83
m1 = 1.826	1071.65	1065.12	1061.7	1057
